pKi: −log10 of the molar value.
Key:
[1] = biological target: T1, Recombinant IKKα (Homo sapiens, UniProt O15111); experiment: DELFIA IKKα kinase assay (apparent Ki, Cheng-Prusoff); format: biochemical
T1 construct: purchased Millipore, Dundee, UK
T1 sequence (O15111 1-745): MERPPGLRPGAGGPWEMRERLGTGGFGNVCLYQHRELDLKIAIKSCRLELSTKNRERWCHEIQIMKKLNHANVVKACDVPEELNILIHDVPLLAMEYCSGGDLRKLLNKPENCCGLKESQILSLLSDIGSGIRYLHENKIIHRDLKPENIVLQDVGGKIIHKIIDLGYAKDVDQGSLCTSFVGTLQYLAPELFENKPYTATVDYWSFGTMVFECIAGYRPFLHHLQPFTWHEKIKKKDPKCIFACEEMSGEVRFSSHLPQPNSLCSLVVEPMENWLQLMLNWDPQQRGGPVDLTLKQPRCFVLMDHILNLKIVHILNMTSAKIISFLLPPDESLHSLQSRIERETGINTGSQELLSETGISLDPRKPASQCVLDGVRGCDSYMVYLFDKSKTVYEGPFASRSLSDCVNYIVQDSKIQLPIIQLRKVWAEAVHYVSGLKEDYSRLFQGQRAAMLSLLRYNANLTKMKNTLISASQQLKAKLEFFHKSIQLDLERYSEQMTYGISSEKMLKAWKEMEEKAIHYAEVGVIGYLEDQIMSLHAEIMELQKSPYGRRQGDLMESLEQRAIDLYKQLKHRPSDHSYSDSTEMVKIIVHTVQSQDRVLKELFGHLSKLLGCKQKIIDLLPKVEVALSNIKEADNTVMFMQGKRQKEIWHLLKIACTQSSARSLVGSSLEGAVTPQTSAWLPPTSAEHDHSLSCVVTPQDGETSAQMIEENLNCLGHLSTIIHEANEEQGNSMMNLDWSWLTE
Summary of the method: (§1)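 Recombinant IKKα or IKKβ (37 nM) with 0.375 μM biotinylated IκB-α (Ser32) peptide and 40 μM ATP in 40 mM Tris-HCl pH 7.5, 20 mM MgCl2, 60 min at 30° C. Phospho-substrate captured on streptavidin and detected by anti-phospho-IκB-α plus europium anti-mouse IgG time-resolved fluorescence; apparent Ki via Cheng-Prusoff.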

[2] = biological target: T2, Recombinant IKKβ (Homo sapiens, UniProt O14920); experiment: DELFIA IKKβ kinase assay (apparent Ki, Cheng-Prusoff); format: biochemical
T2 construct: purchased Millipore, Dundee, UK
T2 sequence (O14920 1-756): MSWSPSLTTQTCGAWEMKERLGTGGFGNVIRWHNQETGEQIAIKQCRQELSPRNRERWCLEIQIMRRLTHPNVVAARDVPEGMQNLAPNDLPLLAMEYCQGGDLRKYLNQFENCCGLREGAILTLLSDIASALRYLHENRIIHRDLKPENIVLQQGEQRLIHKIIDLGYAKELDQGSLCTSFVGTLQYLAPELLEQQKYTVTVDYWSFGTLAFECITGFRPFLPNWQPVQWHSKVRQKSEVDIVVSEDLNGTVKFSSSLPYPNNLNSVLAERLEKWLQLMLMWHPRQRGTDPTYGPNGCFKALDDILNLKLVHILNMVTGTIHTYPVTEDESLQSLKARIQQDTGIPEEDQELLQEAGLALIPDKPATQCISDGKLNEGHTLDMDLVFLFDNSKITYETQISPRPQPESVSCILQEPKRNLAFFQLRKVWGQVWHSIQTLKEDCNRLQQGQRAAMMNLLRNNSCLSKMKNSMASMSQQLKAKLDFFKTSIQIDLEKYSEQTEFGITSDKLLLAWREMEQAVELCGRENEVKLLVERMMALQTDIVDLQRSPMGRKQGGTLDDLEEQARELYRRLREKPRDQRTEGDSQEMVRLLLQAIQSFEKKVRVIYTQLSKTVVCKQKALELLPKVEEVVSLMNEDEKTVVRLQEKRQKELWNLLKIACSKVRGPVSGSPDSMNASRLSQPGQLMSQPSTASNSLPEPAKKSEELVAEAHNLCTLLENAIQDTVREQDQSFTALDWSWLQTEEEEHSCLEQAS
Summary of the method: as §1

[3] = non-italicised figure: DELFIA assay
[4] = DELFIA assay (first line of an example)

Row | Compound | pKi [1, 3] | pKi [2, 3] | pKi [1, 4] | pKi [2, 4]
1 | Nc1n[nH]c2ccc(-c3ccnc(NC(=O)Nc4cccc(OCc5ccccc5)c4)c3)cc12 [Example 57, 1-(4-(3-Amino-1H-indazol-5yl)pyridin-2-yl)-3-(3-(benzyloxy)phenyl)urea] | 7.42 | 5.38 |  | 
2 | COC(=O)c1cc2c(-c3cc(C#CC(C)(C)C)c4[nH]nc(N)c4c3)ccnc2[nH]1 [Example 299, Methyl 4-(3-amino-7-(3,3-dimethylbut-1-yn-1-yl)-1H-indazol-5-yl)-1H-pyrrolo[2,3-b]pyridine-2-carboxylate] |  |  | 8.00 | < 6.43
3 | Nc1cc(-c2cc(-c3ccsc3)c3[nH]nc(N)c3c2)ccn1 [Example 130, 5-(2-Aminopyridin-4-yl)-7-(thiophen-3-yl)-1H-indazol-3-amine] | 7.37 | 6.21 |  | 
4 | CC(C)(C)C#Cc1cc(-c2ccnc(NC3CC3)c2)cc2c(N)n[nH]c12 [Example 153, 5-(2-(Cyclopropylamino)pyridine-4-yl)-7-(3,3-dimethylbut-1-yn-1-yl)-1H-indazol-3-amine] | 8.40 | 7.00 |  | 
5 | CC(C)c1cccc(NC(=O)Nc2cc(-c3ccc4[nH]nc(N)c4c3)ccn2)c1 [Example 53] | 7.85 | 6.38 |  | 
6 | COCCNc1cc(-c2cc(C#CC(C)(C)C)c3[nH]nc(N)c3c2)ccn1 [Example 162, 7-(3,3-dimethylbut-1-yn-1-yl)-5-(2-((2-methoxyethyl)amino)pyridin-4-yl)-1H-indazol-3-amine] | 7.46 | 5.95 |  | 
7 | COC(=O)Nc1cc(-c2cc(C#CC(C)(C)N)c3[nH]nc(N)c3c2)ccn1 [Example 181, Methyl (4-(3-amino-7-(3-amino-3-methylbut-1-yn-1-yl)-1H-indazol-5-yl)pyridin-2-yl)carbamate1] | 7.70 | 6.29 |  | 
8 | CC(C)(C)C#Cc1cc(-c2ccnc3[nH]c(C(F)F)nc23)cc2c(N)n[nH]c12 [Example 300, 5-(2-(Difluoromethyl)-3H-imidazo[4,5-b]pyridin-7-yl)-7-(3,3-dimethylbut-1-yn-1-yl)-1H-indazol-3-amine] |  |  | 7.89 | 5.87
9 | Nc1n[nH]c2ccc(-c3ccnc(NC(=O)NCc4cccnc4)c3)cc12 [Example 48, 1-(4-(3-Amino-1H-indazol-5-yl)pyridin-2-yl)-3-(pyridin-3-ylmethyl)urea] | 7.12 | 6.08 |  | 
10 | COC(=O)Nc1cc(-c2cc(C#CC(C)(C)C)c3[nH]nc(N)c3c2)ccn1 [Example 190, Methyl (4-(3-amino-7-(3,3-dimethylbut-1-yn-1-yl)-1H-indazol-5-yl)pyridin-2-yl)carbamate] |  |  | 7.92 | 5.93
11 | CC(C)CCNCc1cc2c(-c3ccc4[nH]nc(N)c4c3)ccnc2[nH]1 [Example 249, 5-(2-((Isopentylamino)methyl)-1H-pyrrolo[2,3-b]pyridine-4-yl)-1H-indazol-3-amine] |  |  | 7.25 | 5.83
12 | CC(C)(C)C#Cc1cc(-c2ccnc(Nc3nnc[nH]3)c2)cc2c(N)n[nH]c12 [Example 319, 5-(2-((4H-1,2,4-Triazol-3-yl)amino)pyridin-4-yl)-7-(3,3-dimethylbut-1-yn-1-yl)-1H-indazol-3-amine] |  |  | 7.57 | 6.31
13 | COCCNc1cc(-c2ccc3[nH]nc(N)c3c2)ccn1 [Example 25, 5-(2-((2-Methoxyethyl)amino)pyridine-4-yl)-1H-indazol-3-amine] | 6.66 | < 5.00 |  | 
14 | Nc1n[nH]c2ccc(-c3ccnc(NC(=O)CC4CCCCC4)c3)cc12 [Example 335, N-(4-(3-Amino-1H-indazol-5-yl)pyridin-2-yl)-2-cyclohexylacetamide] |  |  | 6.47 | 5.38
15 | Nc1n[nH]c2ccc(-c3ccnc(NC(=O)Nc4cccc(CO)c4)c3)cc12 [Example 54, 1-(4-(3-Amino-1H-indazol-5-yl)pyridin-2-yl)-3-(3-(hydroxymethyl)phenyl)urea] | 7.85 | 6.38 |  | 
16 | CCOC(=O)c1cc2c(-c3ccc4[nH]nc(N)c4c3)ccnc2[nH]1 [Example 232, Ethyl 4-(3-amino-1H-indazol-5-yl)-1H-pyrrolo[2,3-b]pyridine-2-carboxylate] |  |  | 8.00 | 5.90
17 | Nc1n[nH]c2c(C#CC3CC3)cc(-c3ccnc(NC4COC4)c3)cc12 [Example 284, 7-(Cyclopropylethynyl)-5-(2-(oxetan-3-ylamino)pyridin-4-yl)-1H-indazol-3-amine] |  |  | 7.92 | 6.41
18 | Nc1n[nH]c2ccc(-c3ccnc(NC(=O)NC4CCCC4)c3)cc12 [Example 39, 1-(4-(3-Amino-1H-indazol-5-yl)pyridin-2-yl)-3-cyclopentylurea] | 6.94 | 6.01 |  | 
19 | COC(=O)Nc1cc(-c2cc(CCC(C)(C)C)c3[nH]nc(N)c3c2)ccn1 [Example 293, Methyl (4-(3-amino-7-(3,3-dimethylbutyl)-1H-indazol-5-yl)pyridin-2-yl)carbamate] |  |  | 7.72 | 6.56

— patent US20250304576A1 (Cancer Research Technology Limited, priority 2022, published 2025)
